| melting point | SMILES |
| --- | --- |
| 270 to 285 °C | O=C(O)C1c2cccnc2NN1C(=O)O (stereo unspecified) |
| 79 to 81 °C | CC(C)(C)C(O)C(CCCCOc1ccccc1)n1cncn1 (stereo unspecified) |
| 191 °C | COc1ccc(CNc2ncnc3c2ncn3C2OC(CN=[N+]=[N-])C(O)C2O)cc1 (stereo unspecified) |
| 137 to 138 °C | Cc1c(NC(=O)CCCCc2ccc(F)cc2)ccc2cc(CN3CCCC3)cnc12 |
| 142 to 145 °C | COC(=O)c1ccc(OCCCBr)cc1NC(=O)C=Cc1ccc(-c2ccccc2)cc1 |
| 175 to 177 °C | Cc1ccc(CC(N)=O)cn1 |
| 87 °C | CCC(C#N)C(Br)c1ccc(Br)cc1 (stereo unspecified) |
| 178 to 181 °C | COC(=O)C1=Cc2cc(-c3ccc(N4CCOCC4)cc3)ccc2N(C=O)CC1 |
| 136 to 138 °C | O=C(O)COc1cccc2c1CCc1sc(SCCCC(c3ccccc3)c3ccccc3)nc1-2 |
| 144 to 147 °C | COc1cc(C(C)C(=O)O)cc2ccc3ccccc3c(=O)c12 (stereo unspecified) |
| 149 to 151 °C | COc1ccc(Cl)c(NC(=O)Cc2ccc(Cl)cc2)c1 |
| 215 to 217 °C | Cc1nc(N)ncc1-c1ccncc1 |
| 66 to 68 °C | S=C(Nc1cccc2c1[nH]c1ccccc12)SCc1ccccc1 |
| 168 °C | CCCCc1nc2cncnc2[nH]1 |
| 188 °C | O=C(O)COc1cc2cc(CO)sc2c(Cl)c1Cl |
| 259 to 262 °C | Cc1cc(-n2ccnc2)cc2ccc(=O)[nH]c12 |
| 102 °C | CCCOc1ccc(C=CC(=O)c2c(OC)cc(OC)cc2OC(=O)CC)cc1 |
| 184 °C | NC(=NO)c1cc2cc(F)c(F)cc2o1 |
| 260 to 261 °C | C=CCOc1ccc(C(=O)Oc2ccc(C(=O)O)cc2)cc1C12CC3CC(CC(C3)C1)C2 |
| 183 to 184 °C | N#Cc1sc(N)c(C#N)c1N1CCCCC1 |
| 204 to 208 °C | Nc1nccnc1C(=O)NCCc1ncc[nH]1 |
| 73.5 to 77 °C | COc1ccccc1Oc1c(NS(=O)(=O)c2ccc(C(C)(C)C)cc2)nc(OCCO)nc1OCCOc1ncc(Br)cn1 |
| 98 to 100 °C | OC1Cc2ccccc2C1O (stereo unspecified) |
| 193 to 194 °C | CCCCc1nc2cc[nH]c(=O)c2n1Cc1ccc([N+](=O)[O-])cc1 |
| 204 °C | COc1ccc2c(c1)sc1nc(C)c(CO)n12 |

| melting point | SMILES |
| --- | --- |
| 128 to 131 °C | COc1ccc(C#Cc2ccncc2)c2c1OC1(CCCC1)C2 |
| 115 to 116 °C | CCCC(=O)c1cnc2c(C)cccc2c1Nc1cc(OC)ccc1OC |
| 290 to 292 °C | COC(=O)c1coc(-c2ccc(NS(=O)(=O)c3sc4ccc(F)cc4c3C)c(S(C)(=O)=O)c2)n1 |
| 117 to 118 °C | O=C(Nc1cccc(C(F)(F)F)c1)c1cccnc1Cl |
| 160 to 163 °C | Cc1c(O)cc(O)cc1C(=O)OCc1ccc([N+](=O)[O-])cc1 |
| 129 to 131 °C | CCC(=O)NCC[C@@H]1CCc2cc(Br)c3c(c21)CCO3 |
| 172 to 174 °C | COC(=O)c1c(Cc2ccc(S(=O)(=O)CCO)cc2)c(=O)c2ccc(Cl)cc2n1-c1ccccc1 |
| 128 to 130 °C | O=C1CC2CCc3ccc(F)cc3C2=NN1c1ccc(OCC2CO2)cc1 (stereo unspecified) |
| 135 °C | CCCCn1c(=O)cn[nH]c1=O |
| 78 to 80 °C | O=C(Cl)C=Cc1ccc(Cl)cc1 |
| 148 to 150 °C | COc1ccc(S/C(=C/C(=O)NO)CCCCc2ccccc2)cc1OC |
| 142 to 143 °C | COC(=O)CCC(C(=O)C=Cc1ccc(O)c(OC(F)(F)F)c1)C(=O)C=Cc1ccc(O)c(OC(F)(F)F)c1 (stereo unspecified) |
| 154 to 157 °C | COc1nc2nc(S(=O)(=O)Cl)nn2cc1C |
| 117 to 118 °C | O=C(O)Cc1ccc2c(c1)CCC(c1ccccc1F)N2 (stereo unspecified) |
| 190 to 191 °C | c1cc(-c2cnco2)nc(-c2cnco2)c1 |
| 131 °C | COc1cc(OC)c([N+](=O)[O-])nc1NCCO |
| 165 to 166 °C | Cc1ccccc1C(=O)c1nc[nH]c1C |
| 172 to 174 °C | CC(=O)NNc1ccc(N=C=S)cc1 |
| 105 to 106 °C | OCc1cn(-c2ccc(OC(F)(F)F)cc2)cn1 |
| 41 to 43 °C | CCOP(=O)(COS(=O)(=O)c1c(C)cccc1Cl)OCC |
| 185 to 186 °C | CS(=O)(=O)c1c(Sc2ccccc2)cccc1C(=O)O |
| 68 to 70 °C | COc1ccccc1N1CCN(CCNC(=O)CCN2CCC(c3c[nH]c4cc(F)ccc34)CC2)CC1 |
| 90 to 92 °C | Fc1ccc(-c2nc(-c3ccccc3)cn2-c2ccncc2)cc1 |
| 74 to 76 °C | CCOC(OCC)C(=O)OCc1c(-c2cnccn2)ssc1=O |
| 229 to 231 °C | O=C1NCc2c(-c3ccccc3)cccc2N1C1CCCCC1 |

| melting point | SMILES |
| --- | --- |
| 271 to 273 °C | Cc1ccc(C=CC(=O)NN2CC(=O)NC2=O)cc1Cl |
| 133 to 135 °C | C#CCn1c(-c2ccc(Cl)nc2Cl)nc(OS(=O)(=O)C(F)(F)F)c(OC)c1=O |
| 135 to 136 °C | CC(=O)n1ncc2c(O)ccc(C)c21 |
| 101 to 103 °C | C[C@@H](CO)Cn1c(C(=O)NCc2cc(C(F)(F)F)cc(C(F)(F)F)c2)c(-c2ccccc2)c2cccnc2c1=O |
| 93 to 94 °C | COCc1ccc(C#Cc2ccc3c(c2)C(C)(C)CCC3(C)C)cc1 |
| 202 to 204 °C | Cc1cc(=O)n2ncn(N)c2n1 |
| 139 to 140 °C | C=CCn1nc(C)c(CC(=O)O)c1C |
| 168 °C | Cc1ncn(Nc2cccc(Cl)c2)c1-c1cccc(Cl)c1 |
| 142 to 146 °C | O=C(O)c1ccc(N2CCCCC2)c(NC(=O)C(CS)Cc2ccccc2)c1 (stereo unspecified) |
| 107 to 112 °C | O=C(c1ccccc1)C(O)C1OC(n2cnc3c(NC4CCCc5ccccc54)ncnc32)C(O)C1O (stereo unspecified) |
| 320 °C | Cc1[nH]c(=O)oc1C(=O)c1ccc(-n2ccnc2)cc1 |
| 136 °C | O=C(O)c1cc(SCCO)ccc1O |
| 272 to 275 °C | NC(=O)C1CCN(c2cc(-c3ccc(Cl)cc3)nc3ccc(Cl)cc23)CC1 |
| 151 to 152 °C | O=C(O)C1=CC(CF)(CF)Oc2ccc(Cl)cc21 |
| > 270 °C | COc1ccc2nc(C(F)(F)F)c(C(=O)Nc3nccs3)c(O)c2c1 |
| 40 to 42 °C | Cc1cc(C#N)sc1Br |
| 126 to 135 °C | C=CCOC(=O)c1ccc(COC(=O)Nc2cnc(-c3ccccc3)n(CC(=O)NC(Cc3ccccc3)C(O)C(F)(F)F)c2=O)cc1 (stereo unspecified) |
| 218 °C | CS(=O)(=O)Nc1ccc(C=CC(=O)O)cc1 |
| 200 to 202 °C | CCOC(=O)C(=O)Nc1cccc(O)c1C(N)=O |
| 156 to 158 °C | Cn1nnnc1C(C=CC=O)=C(c1ccc(F)cc1)c1ccc(F)cc1 |
| 119 to 120 °C | CC(=O)N(CCCCCC(=O)O)C(c1ccccc1)c1ccccc1 |
| 165 to 166 °C | CN1CCN(CNc2nc(=O)n(CN3CCN(C)CC3)cc2F)CC1 |
| 139 to 140 °C | COc1ccc(N2C(=O)[C@@H](CCCc3ccccc3)[C@@H]2c2ccc(N3CCN(Cc4ccccc4)CC3)cc2)cc1 (relative stereo) |
| 306 to 307 °C | CC(C)Cn1cnc2c(N)nc3cnccc3c21 |
| 140 to 142 °C | O=C(c1ccc(OCc2ccccc2)cc1O)c1ccc(OCc2ccccc2)cc1O |

| melting point | SMILES |
| --- | --- |
| 204 to 206 °C | O=C(c1[nH]c2ccc(F)cc2c1Sc1ccccn1)N1CCCC1 |
| 157 to 158 °C | CCCCCS(=O)(=O)NC(=O)c1ccc2[nH]cc(Cc3ccc(Cl)cc3Cl)c2c1 |
| 208 to 209 °C | Cn1cncc1-c1cccc(Nc2nccc3ccccc23)c1 |
| 43 °C | CCOC(C)O[C@@H](C(=O)OC(=O)[C@H](OC(C)OCC)[C@@H](NC(=O)OC(C)(C)C)c1ccccc1)[C@@H](NC(=O)OC(C)(C)C)c1ccccc1 (stereo partly specified) |
| 127 °C | CC(C)=CCN1CCC(=C2c3ccccc3CCn3ccnc32)CC1 |
| 195 to 196 °C | CC1Nc2ccc(-c3ccc(C#N)n3C)cc2C(C)(C)O1 (stereo unspecified) |
| 125 to 127 °C | CC(C)Cc1ccc2ccc(N)nc2n1 |
| 120 °C | N#Cc1c(CBr)c(C#N)c(CBr)c(C#N)c1CBr |
| 187 to 190 °C | Cc1cc(NCC(C)C)c2[nH]nc(-c3ccccc3)c2n1 |
| > 300 °C | Oc1nc2ccc3nonc3c2nc1O |
| 315 to 316 °C | Cc1nc(-c2ccc(-c3cnc4[nH]c(=O)n(CCN5CCCC5=O)c4n3)cc2)n[nH]1 |
| 243 to 245 °C | CC(=O)Nc1nc(NC(C)=O)nc(-c2ccc(Oc3ccccc3)cc2)n1 |
| 173 to 174 °C | c1ccc(C2=NN=C(N3CCOCC3)SC2)cc1 |
| 157 to 158 °C | C=CC(=O)OCCCCCCCCOc1ccc(C(=O)O)cc1 |
| > 240 °C | O=C(Nc1cccnc1)N1CCc2c1ccc(Cl)c2Cl |
| 45 to 46 °C | CCOC(=O)C(=CNc1ccccc1)C(=O)OCC |
| 184 to 189 °C | O=C(O)c1cccc(C(=O)CCl)n1 |
| 219 to 223 °C | CC(C)(Cn1cnc2c(N)nc3c(c21)CCCC3)OCCS(C)(=O)=O |
| 161 to 162 °C | COC=C1C(=O)N(OCc2ccccc2)C(=O)c2ccccc21 |
| 66 °C | C=C(Oc1cc(-n2c(=O)cc(C(F)(F)F)n(N)c2=O)c(F)cc1Cl)C(=O)OC |
| 156 to 158 °C | CCOCCn1c(C)c(C2(c3ccc(N(CC)CC)cc3CC)OC(=O)c3ccccc32)c2ccccc21 (stereo unspecified) |
| 126 to 128 °C | COc1ccc(S(=O)(=O)n2ccc3ccnc(-c4ccc(Cl)cc4)c32)cc1 |
| 157 °C | CCCOc1cc([N+](=O)[O-])cc2cc(C(=O)OC)oc12 |

| SMILES | melting point |
| --- | --- |
| CCCC1(C(=O)NCCN2CCC(N3Cc4ccccc4C3=O)CC2)c2ccccc2-c2ccccc21 | 219 to 221 °C |
| CCCN(CCC)Cc1csc(-c2ncn3c2CN(C)C(=O)c2c-3ccc(F)c2Cl)n1 | 123 °C |
| C#CCOC(=O)c1ncn2c1[C@@H]1CCCN1C(=O)c1c(Cl)cccc1-2 | 213 to 214 °C |
| CN1C(=O)CN=C(c2ccccc2F)c2cc(CCN)ccc21 | 125 °C |
| CCOC(=O)C=Cc1ccc(C#CC2(O)CN3CCC2CC3)c(OCC)c1 (stereo unspecified) | 152 to 153 °C |
| CN1Cc2c(C(N)=O)ncn2-c2ccc(F)c(Cl)c2C1=O | 292 to 294 °C |
| C[Si](C)(C)N1Cc2ccccc2P1(=O)c1ccccc1 (stereo unspecified) | 90 to 94 °C |
| O=C(CBr)c1ccc(O)cc1 | 115 to 118 °C |

From a melting point compilation (Tetko et al.; mined from patent text by program, amines drawn as free bases though some values may be those of a salt)
